For one assay, the target named is delta opioid receptor (Homo sapiens (Human), UniProt P41143). The assay can be described thus: In vitro delta-opioid receptor binding assay ([3H]-Naltrindole displacement).
delta opioid receptor, sequence (P41143 whole entry): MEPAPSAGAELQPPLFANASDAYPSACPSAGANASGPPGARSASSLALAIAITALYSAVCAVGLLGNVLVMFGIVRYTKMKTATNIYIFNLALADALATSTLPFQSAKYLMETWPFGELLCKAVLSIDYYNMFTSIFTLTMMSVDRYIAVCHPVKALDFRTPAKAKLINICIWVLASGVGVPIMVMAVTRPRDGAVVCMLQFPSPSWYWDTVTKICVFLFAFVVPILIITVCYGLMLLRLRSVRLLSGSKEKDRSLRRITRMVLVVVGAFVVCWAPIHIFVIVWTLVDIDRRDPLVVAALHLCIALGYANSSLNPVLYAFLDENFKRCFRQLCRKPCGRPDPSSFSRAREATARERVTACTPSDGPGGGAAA
Settings: not given
Consider `O=C(O)c1nc2ccccc2n(C2CC3CCCC(C2)N3C23CC4CC(CC2C4)C3)c1=O` (centres unmarked) [compound 263, 4-(9-(hexahydro-2,5-methano-pentalen-3a-yl)-9-aza-bicyclo[3.3.1]non-3-yl)-3-oxo-3,4-dihydro-quinoxaline-2-carboxylic acid], for which the inhibitory constant (Ki) (commonly a dissociation constant, usually derived from enzyme kinetics or from competition with a known ligand) was determined as 526000 nM.

The next assay concerns FCA-induced inflammation of the rat hind paw.
Assay: not given
The conditions noted are these: in vivo.
Turning to `O=C(O)c1nc2ccccc2n([C@H]2C[C@H]3CCC[C@@H](C2)N3C2CCCCCCC2)c1=O` [compound 241, 4-((endo)-9-cyclooctyl-9-azabicyclo[3.3.1]nonan-3-yl)-3-oxo-3,4-dihydroquinoxaline-2-carboxylic acid], the “maximum % reversal of thermal hyperalgesia” value is recorded as “about 80%”.

In the next assay the target is human opioid receptor-like (ORL-1) (Homo sapiens (Human), UniProt P41146). Briefly: In vitro ORL-1 receptor [35S]GTPγS functional assay. It counts as biochemical.
human opioid receptor-like (ORL-1), sequence (P41146 whole entry): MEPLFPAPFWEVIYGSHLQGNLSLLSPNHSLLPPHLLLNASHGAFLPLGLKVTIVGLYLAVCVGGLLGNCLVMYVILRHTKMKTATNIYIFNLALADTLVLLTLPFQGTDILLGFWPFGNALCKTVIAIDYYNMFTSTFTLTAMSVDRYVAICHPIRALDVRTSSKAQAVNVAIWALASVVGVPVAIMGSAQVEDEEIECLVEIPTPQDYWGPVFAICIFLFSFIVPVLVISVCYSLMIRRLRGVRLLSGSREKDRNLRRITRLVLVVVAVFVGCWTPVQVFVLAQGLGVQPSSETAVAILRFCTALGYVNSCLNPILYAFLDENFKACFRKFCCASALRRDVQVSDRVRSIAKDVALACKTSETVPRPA
Settings: not given
(In general: GTPγS resists hydrolysis and so accumulates on activated G proteins.)
For the molecule `CCOC(=O)c1nc2ccccc2n(C2CCN(C3CCCCCCC3)CC2)c1=O` [compound 70, ethyl 4-(1-cyclooctylpiperidin-4-yl)-3-oxo-3,4-dihydroquinoxaline-2-carboxylate], a half-maximal effect (EC50) was put at 788 ± 44 nM.
As for `CC(NC(=O)c1nc2ccccc2n([C@H]2C[C@H]3CC[C@@H](C2)N3C2CCCCCCC2)c1=O)C(=O)O` (stereo partly drawn) [compound 312, 2-(4-((endo)-8-cyclooctyl-8-azabicyclo[3.2.1]octan-3-yl)-3-oxo-3,4-dihydroquinoxaline-2-carboxamido)propanoic acid], a half-maximal effect (EC50) was put at 138 ± 8.1 nM.
Still for that read-out and setting: with `CC1(N2[C@@H]3CCC[C@H]2C[C@@H](n2c(=O)c(C(=O)O)nc4ccccc42)C3)CCCCCCC1` [compound 335] the figure was 174 ± 10 nM; with `CCOC(=O)CNc1nc2ccccc2n(C2CCN(C3CCCCCCC3)CC2)c1=O` [compound 57], 486 ± 34 nM; with `O=C(O)c1nc2ccccc2n([C@H]2C[C@H]3CC[C@@H](C2)N3C23CC4CC(CC2C4)C3)c1=O` [compound 320], 104 ± 7.8 nM.
For `CC(=O)N[C@@H]1CCN(c2nc3ccccc3n(C3CCN(C4CCCCCCC4)CC3)c2=O)C1` [compound 37], the 50% effective concentration (EC50) (in general, the concentration needed to bring the measured effect to its halfway point) is 265 ± 31 nM.
The same measure, in the same setting: with `O=C(O)c1nc2ccccc2n([C@H]2C[C@H]3CCC[C@@H](C2)N3C2C3CC4CC(C3)CC2C4)c1=O` (some centres unmarked) [compound 363] the figure was 4090 ± 1160 nM; with `O=C(O)CC(NC(=O)c1nc2ccccc2n([C@H]2C[C@H]3CC[C@@H](C2)N3C2CCCCCCC2)c1=O)C(=O)O` (stereo partly drawn) [compound 310, 2-(4-((endo)-8-cyclooctyl-8-azabicyclo[3.2.1]octan-3-yl)-3-oxo-3,4-dihydroquinoxaline-2-carboxamido)succinic acid], 419 ± 62 nM.
The same measure, in the same setting: then `CSCCC(NC(=O)c1nc2ccccc2n([C@H]2C[C@H]3CC[C@@H](C2)N3C2CCCCCCC2)c1=O)C(=O)O` (stereo partly drawn) [compound 309, 2-(4-((endo)-8-cyclooctyl-8-azabicyclo[3.2.1]octan-3-yl)-3-oxo-3,4-dihydroquinoxaline-2-carboxamido)-4-(methylthio)butanoic acid], with 659 ± 155 nM; and `O=C(O)c1nc2ccccc2n(C2CC3CCCC(C2)N3C23CC4CC(CC2C4)C3)c1=O` (centres unmarked) [compound 263, 4-(9-(hexahydro-2,5-methano-pentalen-3a-yl)-9-aza-bicyclo[3.3.1]non-3-yl)-3-oxo-3,4-dihydro-quinoxaline-2-carboxylic acid], with 298 ± 26 nM.
`NC(=O)C1CCN(c2nc3ccccc3n(C3CCN(C4CCCCCCC4)CC3)c2=O)CC1` [compound 29] yielded an EC50 of 468 ± 81 nM.
`NC(=O)CNc1nc2ccccc2n(C2CCN(C3CCCCCCC3)CC2)c1=O` [compound 32] yielded a 50% effective concentration (EC50) of 406 ± 42 nM.
